Test results: patent publication US7897789B2, “Vitamin D receptor modulators” (Eli Lilly and Company, priority 2003, dated 2011)
“And” between values parts separate entries of the source, which are not always exact repeats. Equal values may be shown once. Read-outs that look alike come from different tables or passages of the source.

What was measured:
[1] = tested on: DBF mice; assay: Mouse hypercalcemia assay; conditions: oral gavage for 6 days
Source text: The Mouse Hypercalcemia Assay
The Mouse Hypercalcemia Assay is a six day hypercalcemia test for toxicity and selectivity.
(4) Materials and Method for the Mouse Hypercalcemia Assay:
Weanling, virus-antibody-free, five to six weeks old female DBF mice (Harlan, Indianapolis, Ind.) are used for all the studies. Animals are allowed to acclimate to local vivarium conditions for 2 days. […] The animals then are divided into groups with 4-5 mice per group. Different doses of test compounds prepared in 10% Ethanol and 90% sesame oil are administered to mice orally via gavage for 6 days. 1α-25(OH)2D3 0.5 μg/kg/d was also given to one group of mice as the positive control. […] Raw data of group differences is assessed by analysis of variance (ANOVA) using Fisher's protected least significant difference (PLSD) where the significance level was P<0.05.

[2] = tested on: rat osteocalcin promoter; assay: OCN (osteocalcin) promoter assay; assay type: cell-based; conditions: RG-15 (ROS 17/2.8) cells
Procedure: 3. The OCN (Osteocalcin) Promoter Assay
The OCN Promoter Assay is an indicator and marker for osteoporosis. […] Preferred assay results are less than 50 nM.
(3) Materials and Method for the OCN Promoter Assay:
The activation of osteocalcin by VDR ligands was evaluated in a rat osteoblast-like cell line RG-15 (ROS 17/2.8) stably expressing rat osteocalcin promoter fused with luciferase reporter gene. […] Confluent RG-15 cells maintained in DMEM/F-12 medium (3:1) containing 5% FBS, 300 μg/ml G418 and at 37° C. under 5% CO2/95% air atmosphere were trypsinized (0.25% trypsin) and plated into white opaque 96-well cell culture plates (25000 cells/well). After 24 hr, cells (in DMEM/F-12 medium+2% FBS) were treated with various concentrations of compounds, dissolved in DMSO. The final DMSO concentration remained at 0.01% (v/v). After 48 hr treatment, the medium was removed, cells were lysed with 50 μl of lysis buffer (From Luciferase reporter assay system, Roche Diagnostics, Indianapolis, Ind.) and assayed for luciferase activity using the Luciferase Reporter Gene Assay kit from Boehringer Mannheim as per manufacturer's specifications.

[3] = tested on: KERtr cells; assay: Keratinocyte proliferation assay; assay type: cell-based; conditions: Homo sapiens
Procedure: 5. The Keratinocyte Proliferation Assay
This Assay is indicative for the treatment of psoriasis.
(5) The Keratinocyte Proliferation Assay:
KERtr cells (Human skin keratinocyte transformed with a retrovirus vector, obtained from ATCC) were plated in 96-well flat-bottomed plates (3000 cells/well) in 100 μl keratinocyte serum free medium supplemented with bovine pituitary extract in the absence of EGF (Life Technologies, Rockville, Md.) and incubated at 37° C. for two days. The cells were treated with various concentrations of VDR ligands (ten-fold serial dilution from 10,000 nM to 0.1 nM in triplicate), dissolved in 100 μl keratinocyte serum free medium supplemented with bovine pituitary extract in the absence of EGF and incubated at 37° C. for 72 hr. […] Potency values (IC50) values were determined as the concentration (nM) of compound that elicited a half-maximal response.

[4] = target: T1, VDR (Homo sapiens, UniProt P11473); assay: Caco-2 cell co-transfection assay (VDR CTF); assay type: cell-based; conditions: Caco-2 cells, pGal4-VDR-LBD luciferase co-transfection; Table 1
T1 construct: the receptor expression vector pGal4-VDR-LBD (10 ng); expressed in transfected cells; host or cells: Caco-2 cells
T1 sequence (P11473 127-423 limits assumed): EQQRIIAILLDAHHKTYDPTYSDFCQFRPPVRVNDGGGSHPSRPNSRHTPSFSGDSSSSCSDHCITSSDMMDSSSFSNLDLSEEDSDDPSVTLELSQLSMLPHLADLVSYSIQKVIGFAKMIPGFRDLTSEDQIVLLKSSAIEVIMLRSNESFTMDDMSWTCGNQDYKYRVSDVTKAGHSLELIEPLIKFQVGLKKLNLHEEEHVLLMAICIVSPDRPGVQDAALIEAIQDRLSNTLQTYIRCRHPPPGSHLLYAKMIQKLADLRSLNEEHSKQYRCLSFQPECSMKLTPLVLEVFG
Procedure: 2. The Caco-2 Cell Co-Transfection Assay:
The Caco-2 cell assay is an indicator for the undesirable condition of hypercalcemia. This co-transfection assay is a surrogate assay for in vivo calcemic activity of VDR ligands. […] Preferred assay results are greater than 1000 nM.
(2) Materials and Method for The Caco-2 Cell Assay:
Caco-2 cells, grown in phenol red free, DMEM (Invitrogen, Carlsbad, Calif.) containing 10% charcoal-stripped FCS (Hyclone, Logan, Utah), were transfected with Fugene 6 reagent (Roche Diagnostics, Indianapolis, Ind.). Cells (5000/well) were plated 18 h before transfection in a 96 well plate. The Cells were transfected with Gal4-responsive reporter pFRLuc (150 ng, Stratagene, La Jolla Calif.) and the receptor expression vector pGal4-VDR-LBD (10 ng), along with Fugene 6 reagent (0.2 μl/well). The DNA-Fugene complex was formed by incubating the mixture for 30 min at room temperature. The cells were transfected in triplicate for 5 h, and treated with various concentrations of VDR ligands (form 0.01 nM to 10,000 nM concentration range) 18 h post-transfection. The luciferase activity was quantified using Steady-Glo reagent kit (Promega, Madison, Wis.) as per manufacturer's specifications.

[5] = target: T2, RXR-VDR heterodimer (Homo sapiens, UniProt P11473); assay: RXR-VDR heterodimerization assay (SaOS-2 cells); assay type: cell-based; conditions: Gal4-RXR / VP16-VDR-LBD luciferase reporter, Table 1
T2 construct: Add the Gal4-RXR-DEF and VP16-VDR-LBD; expressed in transfected cells; host or cells: SaOS-2 cells
T2 sequence (P11473 127-423 limits assumed): T1 sequence (P11473 127-423 limits assumed)
T2 sequence (P19793 201-462 partner limits assumed): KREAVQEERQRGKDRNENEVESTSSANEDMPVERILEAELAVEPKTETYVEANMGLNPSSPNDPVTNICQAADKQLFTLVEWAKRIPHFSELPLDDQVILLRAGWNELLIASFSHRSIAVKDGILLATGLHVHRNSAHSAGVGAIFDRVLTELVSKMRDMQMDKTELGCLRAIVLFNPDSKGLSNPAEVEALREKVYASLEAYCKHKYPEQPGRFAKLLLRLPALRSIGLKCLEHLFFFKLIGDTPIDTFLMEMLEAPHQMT
Procedure: 1. The RXR-VDR HeterodimerAssay:
This assay provides the VDR activity of a test compound.
(1) Materials and Method for RXR-VDR Heterodimerization Assay:
Luciferase Assay Reagent: • Use Steady-Glo Luciferase Reagent from Promega (Cat #E2550) Consists of: a. E2533 Assay Substrate, lyopholized product and b. E2543 Assay Buffer. • Thaw at room temperature • Store Cell Harvesting Aspirate media from culture flask, rinse cells with HBSS and aspirate. Add trypsin and incubate. When cells appear detached, resuspend cells in growth media. Transfer into a new flask with fresh growth media for passaging the cells. Plate well plates and two extra plates A. Cell Count Mix the cell suspension using pipette Use Hematocytometer to count the cells Load cell suspension onto the hemocytometer chamber Count cells. […] In sterile flask add cell suspension to plating media. Mix. Add cells/well. Place the cells in the incubator. Cells should be about 75% confluent prior to transfection. DAY 2: Transfection Step 1: DNA and Media Add plain DMEM media to tubes for mixing the DNA Add the Reporter gene pFR-LUC Add the Gal4-RXR-DEF and VP16-VDR-LBD Step 2: FuGENE and Media Prepare plain DMEM media in a ubes for mixing FuGENE Add FuGENE 6 Transfection Reagent Incubate Step 3: FuGENE, DNA and Media Complex Add FuGENE Media complex from step 2 to DNA Media complex from step 1 Incubate Step 4: FuGENE, DNA and Media Complex to-well plate Add FuGENE-DNA-Media complex from step 3 to each plate Incubate. […] Day 4: Luciferase Assay Read the plates after drug treatment Remove part of media from all the wells and leave remainder Add Steady-Glo Luciferase Reagent mixture/wells Incubate Count each well using a Luminescence counter, Top Count NXT by Packard
Set a delay between plates to reduce the background.

[6] = Rattus norvegicus, comparison compounds, Table 3
[7] = comparison compounds, Table 4, read-out: Kera. Prolif. IC50
[8] = serum ionized calcium 6 hours after last dosing, Table 1
[9] = Rattus norvegicus, 48 h, 48 hr treatment, Table 1
[10] = 72 h, BrdU incorporation, Table 2, read-out: Kera. Prolif. IC50

| SMILES | EC50 [2, 9] | IC50 [3, 10] | EC50 [4] | EC50 [5] | further results |
| --- | --- | --- | --- | --- | --- |
| CCC(CC)(c1ccc(OCC(O)CO)c(C)c1)c1ccc(OCC(O)C(C)(C)C)c(C)c1 (stereo not drawn) [BB, 3-(4-{1-Ethyl-1-[4-(2-hydroxy-3,3-dimethyl-butoxy)-3-methyl-phenyl]-propyl}-2-methyl-phenoxy)-propane-1,2-diol, reference compound] |  |  |  |  | Mouse Hypercal ([1]; comparison compounds, Table 3): 20 µg/kg/day; EC50 [2, 6]: 8.24 nM; IC50 [3, 7]: 10 nM |
| CCC(CC)(c1ccc(OCC(=O)C(C)(C)C)c(C)c1)c1ccc(OCC(=O)C(C)(C)C)c(C)c1 [DD, reference compound] |  |  |  |  | Mouse Hypercal ([1]; comparison compounds, Table 3): 1000 µg/kg/day; EC50 [2, 6]: 31.1 nM; IC50 [3, 7]: 1060 nM |
| CCC(CC)(c1ccc(OCC(=O)C(C)(C)C)c(C)c1)c1ccc(OC[C@H](O)C(C)(C)C)c(C)c1 [EE, reference compound] |  |  |  |  | Mouse Hypercal ([1]; comparison compounds, Table 3): 1000 µg/kg/day; EC50 [2, 6]: 341 nM |
| CCC(CC)(c1ccc(OCC(=O)C(C)(C)C)c(C)c1)c1cc2ccc(C(=O)O)cc2s1 [Ex 7, 2-{1-[4-(3,3-dimethyl-2-oxo-butoxy)-3-methyl-phenyl]-1-ethyl-propyl}-benzo[b]thiophene-6-carboxylic acid] | 1 nM | 1000 nM | 791 nM |  | Mouse Hypercal [1, 8]: >300 µg/kg/day |
| CCC(CC)(c1ccc(OCC(O)C(C)(C)C)c(C)c1)c1ccc2sc(C(=O)O)cc2c1 (stereo not drawn) [Ex 14, 5-{1-ethyl-1-[4-(2-hydroxy-3,3-dimethyl-butoxy)-3-methyl-phenyl]-propyl}-benzo[b]thiophene-2-carboxylic acid] | 6 nM |  | 941 nM |  |  |
| CCC(CC)(c1ccc(OCC(=O)C(C)(C)C)c(C)c1)c1ccc2sc(C(=O)NCC(=O)O)cc2c1 [Ex 15, [(5-{1-[4-(3,3-dimethyl-2-oxo-butoxy)-3-methyl-phenyl]-1-ethyl-propyl}-benzo[b]thiophene-2-carbonyl)-amino]-acetic acid] |  |  |  | 539 nM and 63 nM | Mouse Hypercal [1, 8]: <1000 µg/kg/day |
| CCC(CC)(c1ccc(OCC(O)C(C)(C)C)c(C)c1)c1ccc2sc(C(=O)NCC(=O)O)cc2c1 (stereo not drawn) [Ex 16, [(5-{1-ethyl-1-[4-(2-hydroxy-3,3-dimethyl-butoxy)-3-methyl-phenyl]-propyl}-benzo[b]thiophene-2-carbonyl)-amino]-acetic acid] |  | 384 nM | 938 nM | 254 nM and 108 nM |  |
| CCC(O)(CC)COc1ccc(C(CC)(CC)c2cc3ccc(C(=O)O)cc3s2)cc1C [Ex 22, 2-{1-Ethyl-1-[4-(2-ethyl-2-hydroxy-butoxy)-3-methyl-phenyl]-propyl}benzo[b]thiophene-6-carboxylic acid] |  | 154 nM | 1060 nM | 458 nM and 139 nM |  |
| CCOC(=O)c1cc2cc(C(CC)(CC)c3ccc(OCC4(C(C)(C)C)OCCO4)c(C)c3)ccc2s1 [Ex 23, 5-{1-[4-(2-tert-Butyl-[1,3]dioxolan-2-ylmethoxy)-3-methyl-phenyl]-1-ethyl-propyl}-benzo[b]thiophene-2-carboxylic acid ethyl ester] | 161 nM |  |  |  |  |
| CCC(CC)(c1ccc(OCC(=O)C(C)(C)C)c(C)c1)c1cc2cc(OS(C)(=O)=O)ccc2s1 [Ex 24, methanesulfonic acid 2-{1-[4-(3,3-dimethyl-2-oxo-butoxy)-3-methyl-phenyl]-1-ethyl-propyl}-benzo[b]thiophen-5-yl ester] | 215 nM | 232 nM |  | 695 nM |  |
| CCC(CC)(c1ccc(OCC(O)C(C)(C)C)c(C)c1)c1ccc2cc(C(=O)N(C)C)sc2c1 (stereo not drawn) [Ex. 4, 6-{1-ethyl-1-[4-(2-hydroxy-3,3-dimethyl-butoxy)-3-methyl-phenyl]-propyl}-benzo[b]thiophene-2-carboxylic acid dimethylamide] | 20 nM |  | 555 nM |  | EC50 ([2]; 48 hr treatment, Table 1): 15 nM |
| CCC(CC)(c1ccc(OCC(=O)C(C)(C)C)c(C)c1)c1cc2ccc(C(=O)N(C)C)cc2s1 [Ex. 9, 2-{1-[4-(3,3-Dimethyl-2-oxo-butoxy)-3-methyl-phenyl]-1-ethyl-propyl}-benzo[b]thiophene-6-carboxylic acid dimethylamide] | 41 nM | 1000 nM | 1270 nM |  | EC50 ([2]; 48 hr treatment, Table 1): 35 nM |
| CCC(CC)(c1ccc(OCC(O)C(C)(C)C)c(C)c1)c1cc2ccc(C(=O)N(C)C)cc2s1 (stereo not drawn) [Ex. 10, 2-{1-Ethyl-1-[4-(2-hydroxy-3,3-dimethyl-butoxy)-3-methyl-phenyl]-propyl}-benzo[b]thiophene-6-carboxylic acid dimethylamide] | 24 nM | 573 nM | 690 nM | 323 nM | EC50 ([2]; 48 hr treatment, Table 1): 18 nM |
| CCC(CC)(c1ccc(OCC(O)C(C)(C)C)c(C)c1)c1cc2ccc(C(=O)NCC(=O)O)cc2s1 (stereo not drawn) [Ex. 12, [(2-{1-Ethyl-1-[4-(2-hydroxy-3,3-dimethyl-butoxy)-3-methyl-phenyl]-propyl}-benzo[b]thiophene-6-carbonyl)-amino]-acetic acid] | 0.3 nM | 1 nM | 137 nM | 19 nM and 2 nM |  |
| CCC(CC)(c1ccc(OCC(=O)C(C)(C)C)c(C)c1)c1ccc2sc(C(=O)O)cc2c1 [Ex. 13, 5-{1-[4-(3,3-dimethyl-2-oxo-butoxy)-3-methyl-phenyl]-1-ethyl-propyl}-benzo[b]thiophene-2-carboxylic acid] |  |  | 994 nM | 488 nM and 111 nM | Mouse Hypercal [1, 8]: >300 µg/kg/day |
